We go through five molecules from patent US10087144B2, “Agents for use in the treatment of cardiovascular and inflammatory diseases structurally based on 4(1 H)-quinolone” (UCL Business PLC, priority 2015, dated 2018).

Like-named read-outs stand apart in the source and are kept apart here. Some results are limits rather than exact numbers.

Assay [1] relates to rat mesenteric artery smooth muscle cells. The experiment in a line: Ca2+ flux in response to Angiotensin II in isolated rat mesenteric artery smooth muscle cells (FLIPR). The assay is classed as cell-based. Conditions: for inhibition at 1 µM / inhibition at 10 µM: Rattus norvegicus; for inhibition at 1 µM: read-out: % inhibition 1 μM; for inhibition at 10 µM: read-out: % inhibition 10 μM. The procedure:
Mesenteric artery smooth muscle cells were isolated from male Sprague-Dawley rats (200-250 g). Mesenteric arteries were dissected, cleared of extraneous tissue and incubated in an enzyme solution containing collagenase type I (1 mg/ml), soybean trypsin inhibitor (0.25 mg/ml), bovine albumin (1 mg/ml), CaCl2 (0.2 mM), 100 U/ml penicillin (100 U/ml) and streptomycin (100 μg/ml) in a humidified incubator with 5% CO2 in air. The enzyme solution was replenished at 30 min intervals and cells were pelleted by centrifugation (200 g, 5 min) and differentially plated (×2) for 15 min in Dulbecco's Modified Eagle's Medium (DMEM) supplemented with penicillin (100 U/ml), streptomycin (100 μg/ml), L-Glutamine (2 mM) and 10% heat inactivated New Zealand foetal calf serum. Cells were passaged by trypsinisation and viability determined by trypan blue exclusion.
Measurements of Ca^2+ flux in response to Angiotensin II were conducted using a Fluorescent Imaging Plate Reader (FLIPR; Molecular Devices). Cells were plated at a density of 10,000 cells/well into black, clear-bottomed 96-well plates in DMEM supplemented with penicillin (100 U/ml), streptomycin (100 μg/ml), L-Glutamine (2 mM) and 10% heat inactivated New Zealand foetal calf serum. 24 hrs later the cells were incubated with Fluo-3-AM (4 μM) for 60 min at 37° C. Once dye-loaded, the cells were washed thoroughly with the proprietary assay buffer to remove any unincorporated dye. The cells were then incubated with varying concentrations of a number of representative NPR-C agonist molecules of the invention, C-type natriuretic peptide or vehicle (DMSO) and placed into the FLIPR. After 15 mins, Angiotensin II (100 nM) was automatically dispensed into each well and the fluorescence signal followed for 5 mins. Potency was determined by comparison of the peak fluorescence in each test well (run in triplicate) with that of the control (Angiotensin II alone). Background fluorescence (assay buffer only) was subtracted from all values.
On the technique in general: Calcium assays in cells follow changes in intracellular calcium, usually with a dye or a luminescent sensor.

In assay [2] the test system is human platelets. Nature of the assay: Human platelet aggregation in platelet rich plasma. The assay is classed as cell-based. Conditions: for inhibition at 1 µM: Homo sapiens. The procedure: Blood samples (35 ml) were taken from healthy volunteers who had abstained from aspirin, non-steroidal anti-inflammatory drugs or paracetamol for 14 days. Blood was collected by venepuncture into tri-sodium citrate (3.2% w/v) and centrifuged at 175 g for 15 min to obtain platelet rich plasma (PRP). Platelet poor plasma (PPP) was obtained by centrifugation of PRP at 15000 g for 5 min. The PRP (100 μl) was then added to the wells of 96-well plates and incubated for 15 mins with representative NPR-C agonists of the invention or vehicle (DMSO). Subsequently, platelet agonists (10 μl each) were added to wells in triplicate: adenosine diphosphate (ADP, 0.1-30 μM), arachidonic acid (AA, 0.03-1.3 mM), collagen (type I equine tendon 0.1-30 μg/ml), adrenaline (0.001-100 μM), ristocetin (0.2-3 mg/ml), TRAP6 (thrombin receptor activating peptide) amide (SFLLRN; 0.1-30 μM), U46619 (0.1-30 μM) or vehicle. Plates were then immediately placed in a 96-well plate reader and absorbance determined at 595 nm every 15 s for 16 min between vigorous shaking at 37° C. Changes in absorbance were converted to % aggregation by reference to the absorbances of PRP and PPP.

The subject of assay [3] is rat mesenteric arteries. The experiment in a line: Vasoreactivity in rat mesenteric arteries in vitro (relaxation of U46619-contracted vessels, tension myograph). Particulars: for EC50: vasorelaxation, calculated from concentration-response curves. The protocol: Male rats (Sprague-Dawley; 200-250 g) were stunned and killed by cervical dislocation. The mesentery was removed and third-order arteries mounted in an automated tension myograph (Danish Myotechnology). After an equilibration period of 45 min, vessels were normalized and diameter determined. Following normalization, each vessel was contracted repeatedly with the thromboxane A2-mimetic 9,11-dideoxy-11^α,9^α-epoxymethano-prostaglandin F2α (U46619; 1 μM) until the response was reproducible. The vessels were then washed to restore basal tone before contracting to approximately 50% of the maximum U46619-induced response. Once a stable response to U46619 was achieved, cumulative concentration-response curves were constructed with a variety of NPR-C agonists of the invention at varying concentrations (0.001-30 μM), or vehicle (DMSO). In some studies, concentration-response curves to NPR-C agonists were conducted in the presence of the NPR-C antagonist M372049 (10 μM). Only one curve to any one agonist was constructed in any single tissue.

Assay [4] addresses Human NPR-C (Homo sapiens (Human), UniProt P17342). The experiment in a line: Surface plasmon resonance (SPR) spectroscopy, binding to immobilised human NPR-C. Conditions: FIGS. 5, 6 and 7. The procedure:
All SPR analysis was performed on a BIAcore T200 system using series S CM5 sensor chips. Data processing and analysis were performed using BIAevaluation software and Scrubber2. All sensorgrams were double referenced by subtracting the response on a reference flowcell and a blank sample.
Human NPR-C (OriGene, Rockville, USA), was covalently attached to a CM5 chip via amine coupling. A surface density of 2700 RU was used for measurements with natriuretic peptides and the NPR-C antagonist M372049, and a density of 5200 RU for measurements with compound 118. Sequential injections of CNP (0.25, 0.50, 1, 2 & 4 nM) were performed at a flow rate of 30 μL/min for (240 s for each), followed by a dissociation time of 3600 s. Binding site saturation was observed and the surface was regenerated by two injections of 1M NaCl (200 s each). Binding of M372049 (0.94, 1.88, 3.75, 7.5, 15, 30 & 60 nM) and Compound 118 (1.17, 2.34, 4.70, 9.38, 18.75, 37.50, 75 & 150 μM) was analysed by sequential injections (120 s for M372049, 30 s for compound 118) followed by undisturbed dissociation (600 s for M372049, 30 s for compound 118), during which curves returned to baseline. Kinetic parameters were calculated assuming a simple 1:1 (Langmuir) binding.
(Surface plasmon resonance follows binding to a sensor surface in real time, without labels.)

Assay [5] relates to arterial blood pressure. Nature of the assay: Mean arterial pressure measurements in anesthetized mice. The assay is classed as in vivo. The protocol: Mice were maintained under anesthesia (isoflurane, 1-1.5%, in 100% O2 at 0.4 L·min) throughout the experiment and body temperature was kept constant at 37.5° C. A Millar pressure transducer catheter (Millar Instruments, Houston, Tex., USA) was placed in the carotid artery for arterial blood pressure (BP) measurements and a tube catheter (polyvinyl tubing, 0.61 mm outside diameter) in the jugular vein for intravenous bolus doses of 118 ([…]) and vehicle (10% DMSO in PBS) using a 0.5 mL insulin syringe. A pump (flow 0.5 ml/h) was used for infusion of 118 (1 mg/kg/min) or vehicle (10% dimethylsulfoxide; DMSO in PBS) during 10 min. BP was evaluated throughout.

The mark [6] stands for this setting: 1 μM compound, inhibition of Angiotensin II (100 nM) Ca2+ flux peak fluorescence.
The mark [7] stands for this setting: 10 μM compound, inhibition of Angiotensin II (100 nM) Ca2+ flux peak fluorescence.

Usually EC50 stands for the concentration at which the effect is half-maximal. One may read the inhibition as the drop in the measured response relative to a control, in per cent.

Sequence of Human NPR-C (P17342 27-541): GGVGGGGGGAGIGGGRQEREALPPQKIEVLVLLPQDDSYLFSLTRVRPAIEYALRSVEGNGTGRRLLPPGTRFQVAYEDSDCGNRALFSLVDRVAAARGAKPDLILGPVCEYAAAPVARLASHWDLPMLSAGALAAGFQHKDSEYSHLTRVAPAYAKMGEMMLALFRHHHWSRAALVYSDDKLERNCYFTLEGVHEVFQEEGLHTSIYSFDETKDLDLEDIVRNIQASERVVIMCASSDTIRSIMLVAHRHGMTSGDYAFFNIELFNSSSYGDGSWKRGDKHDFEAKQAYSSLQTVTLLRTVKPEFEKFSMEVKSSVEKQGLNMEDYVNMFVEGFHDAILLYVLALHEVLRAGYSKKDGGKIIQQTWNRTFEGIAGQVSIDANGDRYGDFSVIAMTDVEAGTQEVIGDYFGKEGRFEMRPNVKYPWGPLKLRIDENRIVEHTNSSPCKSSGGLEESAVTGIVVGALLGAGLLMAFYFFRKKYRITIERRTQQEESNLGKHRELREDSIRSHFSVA

For the molecule “C-type natriuretic peptide [CNP, reference compound]”, in assay [1] (setting [6]), the “% inhibition 1 μM” value came out at 100%. Moreover, the “% inhibition 10 μM” value in assay [1] (setting [7]) is 100%. Besides, in assay [2], the “% inhibition of human platelet aggregation (at 1 microM)” value came out at 71.8%. The EC50 in assay [3] was 13.8 nM. The “binding to human NPR-C (SPR)” value in assay [4] was “binding”.
As to `CC(C)(C)OC(=O)CNC(=O)c1cn(Cc2ccccc2)c2ccc(Br)cc2c1=O` [Compound 28, tert-butyl 2-(1-benzyl-6-bromo-4-oxo-1,4-dihydroquinoline-3-carboxamido)acetate], the inhibition at 1 µM in assay [1] was determined as 100%; in assay [2], 14.3%; in assay [3] (Rattus norvegicus, 1 μM, U46619-contracted third-order arteries), 22%. Further, the inhibition at 10 µM in assay [1] stood at 100%; in assay [3] (Rattus norvegicus, 10 μM, U46619-contracted third-order arteries), 97%. The molecule further had an inhibition at 3 µM in assay [3] (Rattus norvegicus, 3 μM, U46619-contracted third-order arteries) of 55%. At 30 µM the inhibition in assay [3] (Rattus norvegicus, 30 μM, U46619-contracted third-order arteries) was 100%. The EC50 in assay [3] (Rattus norvegicus) is 1600 nM.
In the case of `O=C(O)CNC(=O)c1cn(Cc2ccccc2)c2ccc(Br)cc2c1=O` [Compound 118, 2-(1-benzyl-6-bromo-4-oxo-1,4-dihydroquinoline-3-carboxamido)acetic acid], the inhibition at 1 µM came out at 95% in assay [1] (setting [6]) and 16.7% in assay [2]. Further, in assay [1] (setting [7]), the inhibition at 10 µM was found to be 100%. In assay [5] (i.v. bolus, FIG. 2), the “change in BP after intravenous bolus doses” value is given as “dose-dependent decrease in BP”. In assay [5] (infusion 1 mg/kg/min during 10 min, FIG. 3), the “change in BP during infusion” value was “reduction in BP that was sustained during 10 minutes”. Further, the EC50 in assay [3] (Rattus norvegicus) is 2800 nM. For the same molecule, the “binding to human NPR-C (SPR)” value in assay [4] is “binding”.
Turning to `CC(C)C(NC(=O)c1cn(Cc2ccccc2)c2ccc(Br)cc2c1=O)C(=O)O` (stereo not shown) [Compound 119], the “% inhibition 1 μM” value in assay [1] (setting [6]) was determined as 80%. Moreover, in assay [1] (setting [7]), the “% inhibition 10 μM” value was determined as 100%. Also, the “% relaxation 1 μM” value in assay [3] (1 μM, U46619-contracted third-order arteries) is recorded as 2%. The “% relaxation 3 μM” value in assay [3] (3 μM, U46619-contracted third-order arteries) was 5%. Besides, the “% relaxation 10 μM” value in assay [3] (10 μM, U46619-contracted third-order arteries) amounted to 26%. The “% relaxation 30 μM” value in assay [3] (30 μM, U46619-contracted third-order arteries) was determined as 94%. Besides, the EC50 in assay [3] was over 50000 nM.
Turning to `CC[C@H](C)[C@H](NC(=O)[C@@H](CCCN=C(N)N)NC(=O)[C@H](CC(=O)O)NC(=O)[C@H]([C@@H](C)CC)N1CC[C@@H](NC(=O)Cc2ccc(NC(=O)c3cnc4ccccc4n3)cc2)C1=O)C(N)=O` [Compound M372049], the “binding to human NPR-C (SPR)” value in assay [4] is given as “binding”.
